Test results: US20040009933A1, “Fluorescent nitrogenous base and nucleosides incorporating same” (Glen Research Corporation, priority 2002, published 2004)
Entries after “also recorded” stand apart in the source; their conditions may differ. [pyrroloC] = pyrrolo-2'-deoxycytidine (fluorescent C analogue)

Experiments:
[1] = tested on: polymerases; assay: Cycle sequencing of PCR fragments made with pyrrolo-dC substituted primer; assay type: biochemical; settings: C in sense strand product, G in antisense strand product
Description: A series of tests was designed to determine if a pyrrolo-dC residue coded as dC for a dG. In this experiment a 100× diluted aliquot of the ˜500 nucleotide insert generated by the control T7 and Sp6 primers was further amplified using a biotinylated Sp6 primer and either a control 42 base M13-T7 primer or one with four pyrrolo-dC substitutions in the T7 sequence. The PCR product was captured on streptavidin beads, excess primers were removed by washing, and the suspension was divided into two portions. One reaction (the antisense strand) was sequenced using an M13 forward primer (using ABI dRhodamine chemistry); the other was sequenced (carried out using Beckman dye terminator chemistry) by using Sp6, after releasing the sense strand by heat denaturation of the immobilized PCR fragment.
Sequencing reactions (in duplicate) were carried out with PCR fragments to determine if pyrrolo-dC substitutes for dC. PCR fragments were generated by using, as template, a 100-fold dilution of the product of T7/bio-Sp6 reaction (similar to lane 5 above) and a primer pair of biotinylated Sp6 and the M13F-T7 (or its pyrrolo-dC-substituted homolog). The PCR fragment from this amplification was purified by streptavidin beads to remove excess primers and the suspension divided into two portions. […] Thus, under cycle sequencing conditions, the pyrrolo-dC residue is read as a dC.

[2] = molecular target: T1, AmpiTaq DNA polymerase (Thermus aquaticus, UniProt P19821); assay: PCR and sequencing with pyrrolo-dCTP replacing dCTP; assay type: biochemical; settings: dye-terminator cycle sequencing of PCR product
T1 construct: purchased Applied Biosystems
Description: The triphosphate of pyrrolo-dC (pyrrolo-dCTP) was synthesized and compared with dCTP for its ability to be recognized by polymerases and be incorporated as a dC into polymerase generated products. Nucleotide-triphosphate mixes containing either dCTP or pyrrolo-dCTP were used in amplification reactions similar to the ones above and the product analyzed by acrylamide gel.
The PCR and sequencing experiments in Example 15 were repeated to determine if polymerases incorporated pyrrolo-dCTP as efficiently as dCTP (FIGS. 7 & 8). Purified plasmid DNA with 500-600 bp inserts were amplified in a standard 25 μl PCR reaction. One of the primers was biotinylated to facilitate the post-reaction cleanup of the PCR product. AmpiTaq DNA polymerase (1.25 Units, Applied Biosystems) was used as enzyme with 200 μM final concentration of each dNTP. In the pyrrolo-dCTP samples the dCTP was replaced with 200 μM pyrrolo-dCTP. Following the PCR reaction (55° C. annealing for 20 sec, 72° C. extension for 45 sec, 30 cycles) an aliquot of the reaction was subjected to agarose gel electrophoresis to verify the size and quality of the product. […] An aliquot of the purified product, still attached to the magnetic beads, was sequenced in a standard fluorescent dye-terminator cycle sequencing reaction and analyzed on a Beckman CEQ2000XL DNA sequencer.

[3] = molecular target: T7 RNA Polymerase (Escherichia phage T7, UniProt P00573); settings: transcription bubble in elongation complexes; cited from earlier work
[4] = tested on: otherwise duplex hybrid, mismatched base adenosine; settings: mismatched base is adenosine; cited from earlier work
[5] = Spectral properties of pyrrolo-dC (extinction coefficients, fluorescence quantum yield); assay type: physicochemical; settings: for QY (quantum yield): relative to quinine sulfate in O.5 M H2SO4
Description: The spectral properties of pyrrolo-dC, coupled with its unique base-pairing ability, make this fluorescent analog extremely valuable in probing DNA structure. When the pyrrolo-dC is base-paired, its fluorescence can be reduced or quenched through what is most likely base stacking interactions (see Table I).

[6] = tested on: polymerases Taq, Vent, Pfu; assay: PCR with different polymerases using T7 or T7-4 pyrrolo-dC primer; assay type: biochemical; settings: biotinylated Sp6 reverse primer, ~500 nucleotide insert, Vent lower efficiency for both primers
Description: The control and experimental T7 primers were next compared in another experiment using limiting concentrations of each of the T7 primers (1.3, 0.4, 0.15 and 0.05 pmole per reaction) and excess Sp6 primer. […] Finally the control and T7 primer containing four pyrrolo-dC substitutions were compared in their ability to be recognized by a variety of polymerases, Taq from ABI, Vent from New England Biolabs and Pfu from Stratagene. In this case a biotinylated Sp6 primer was used as the reverse primer in the amplification reaction of a plasmid containing an approximately 500 nucleotide insert.
Experiments were carried out to examine the effect of substituted pyrrolo-dC primers on the activity of several polymerases. Three experiments were carried out to examine the ability of different polymerases (Taq, Vent, Pfu) to use the T7 or T7-4 pyrrolo-dC primer in PCR; the other primer in the pair was biotinylated Sp6. […] In FIG. 6, lane 1 is standards, lane 2 is T7-4 pyrrolo-dC primer with Taq (ABI), lane 3 is T7-4 pyrrolo-dC primer with Vent (NEB), lane 4 is T7-4 pyrrolo-dC primer with Pfu (Stratagene), lane 5 is T7 primer with Taq (ABI), lane 6 is T7 primer with Vent (NEB), lane 7 is T7 primer with Pfu (Stratagene), and lane 8 is standards.

[7] = tested on: plasmid 600-nucleotide insert; assay: PCR assay: ability of pyrrolo-dC substituted T7 primers to amplify a plasmid insert; assay type: biochemical; settings: primer dilution 4, 1.3, 0.4, 0.15 and 0.05 pmol, FIG. 4
Experimental: A series of tests were performed to test the ability of the T7 primers synthesized above to function in biological assays. In the first series of tests each of the T7 primers was evaluated in a PCR assay for their ability to amplify a plasmid insert. In the first experiment either the control or one of the experimental T7 forward primers, with one to four pyrrolo-dC substitutions, and an Sp6 reverse primer were tested for their ability to amplify a plasmid 600-nucleotide insert using supramaximal primer concentrations and the PCR products analyzed on an acrylamide gel. The sequences of the T7 forward primers are as follows: 5′-TAA TAC GAX TCA CTA TAG G-3′ (SEQ ID NO.: 6); 5′-TAA TAC GAX TXA CTA TAG G-3′ (SEQ ID NO.: 7); 5′-TAA TAX GAX TXA CTA TAG G-3′ (SEQ ID NO.: 8); 5′-TAA TAX GAX TXA XTA TAG G-3′ (SEQ ID NO.: 9); (control) 5′-TAA TAC GAC TCA CTA TAG G-3′ (SEQ ID NO.: 10), where X=pyrrolo-dC. Analysis of the stained gel was consistent with no differences in either the mobility or intensity of the stained bands corresponding to the 600-nucleotide PCR product generated by the control or experimental T7 primers.
The control and experimental T7 primers were next compared in another experiment using limiting concentrations of each of the T7 primers (1.3, 0.4, 0.15 and 0.05 pmole per reaction) and excess Sp6 primer. […]

[8] = tested on: complementary strands containing each of the four natural deoxyribonucleotide bases opposite pyrrolo-dC; assay: Hybridization specificity: melting temperature (Tm) of 19mer oligonucleotide containing a single pyrrolo-dC; assay type: binding
Experimental: The hybridization specificity of pyrrolo-dC was evaluated by determining the melting temperature (Tm) of a 19mer oligonucleotide with the sequence 5′-GCC TAA CTT CXG GAG ATG T-3′ (SEQ ID NO.: 1), where X is Pyrrolo-dC which contains a single pyrrolo-dC. This oligonucleotide was annealed to complementary strands containing each of the four natural deoxyribonucleotide bases opposite it. Hybridization was best with a strand containing dG opposite pyrrolo-dC and decreased in the order dG>dT>dA>dC (melting temperature Tm=65, 56, 55 and 52° C. respectively). The effect of multiple incorporations was next evaluated by synthesizing a T7 universal primer where dC was replaced with zero to four pyrrolo-dC residues. All five oligonucleotides had the same Tm as that of the control (57° C.) when hybridized with an oligonucleotide complementary to the T7 primer regardless of the number of pyrrolo-dC/dC substitutions.

Chain of T7 RNA Polymerase (P00573 whole entry): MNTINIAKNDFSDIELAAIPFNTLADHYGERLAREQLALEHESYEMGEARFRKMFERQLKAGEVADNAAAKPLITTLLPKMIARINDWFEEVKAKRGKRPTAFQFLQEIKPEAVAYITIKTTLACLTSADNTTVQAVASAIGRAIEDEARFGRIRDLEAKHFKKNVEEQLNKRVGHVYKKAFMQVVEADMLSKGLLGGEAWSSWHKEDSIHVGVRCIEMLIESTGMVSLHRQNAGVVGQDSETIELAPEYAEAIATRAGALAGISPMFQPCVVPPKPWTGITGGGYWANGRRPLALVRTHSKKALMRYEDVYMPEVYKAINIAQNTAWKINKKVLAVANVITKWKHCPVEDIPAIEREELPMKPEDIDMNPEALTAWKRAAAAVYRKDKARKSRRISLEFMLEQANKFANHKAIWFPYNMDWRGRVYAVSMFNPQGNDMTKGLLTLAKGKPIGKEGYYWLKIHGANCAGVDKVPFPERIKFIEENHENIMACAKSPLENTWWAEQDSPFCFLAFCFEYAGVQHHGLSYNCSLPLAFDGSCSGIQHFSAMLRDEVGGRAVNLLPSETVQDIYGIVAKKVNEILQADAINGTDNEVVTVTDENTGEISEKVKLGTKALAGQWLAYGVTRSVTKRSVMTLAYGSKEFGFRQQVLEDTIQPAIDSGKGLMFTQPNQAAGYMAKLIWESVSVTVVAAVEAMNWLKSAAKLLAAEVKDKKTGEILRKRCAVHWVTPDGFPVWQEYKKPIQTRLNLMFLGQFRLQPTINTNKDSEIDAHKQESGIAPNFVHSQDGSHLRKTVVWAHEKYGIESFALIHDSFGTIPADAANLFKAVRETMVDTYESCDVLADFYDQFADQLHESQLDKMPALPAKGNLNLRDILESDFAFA
T1 sequence (P19821 whole entry): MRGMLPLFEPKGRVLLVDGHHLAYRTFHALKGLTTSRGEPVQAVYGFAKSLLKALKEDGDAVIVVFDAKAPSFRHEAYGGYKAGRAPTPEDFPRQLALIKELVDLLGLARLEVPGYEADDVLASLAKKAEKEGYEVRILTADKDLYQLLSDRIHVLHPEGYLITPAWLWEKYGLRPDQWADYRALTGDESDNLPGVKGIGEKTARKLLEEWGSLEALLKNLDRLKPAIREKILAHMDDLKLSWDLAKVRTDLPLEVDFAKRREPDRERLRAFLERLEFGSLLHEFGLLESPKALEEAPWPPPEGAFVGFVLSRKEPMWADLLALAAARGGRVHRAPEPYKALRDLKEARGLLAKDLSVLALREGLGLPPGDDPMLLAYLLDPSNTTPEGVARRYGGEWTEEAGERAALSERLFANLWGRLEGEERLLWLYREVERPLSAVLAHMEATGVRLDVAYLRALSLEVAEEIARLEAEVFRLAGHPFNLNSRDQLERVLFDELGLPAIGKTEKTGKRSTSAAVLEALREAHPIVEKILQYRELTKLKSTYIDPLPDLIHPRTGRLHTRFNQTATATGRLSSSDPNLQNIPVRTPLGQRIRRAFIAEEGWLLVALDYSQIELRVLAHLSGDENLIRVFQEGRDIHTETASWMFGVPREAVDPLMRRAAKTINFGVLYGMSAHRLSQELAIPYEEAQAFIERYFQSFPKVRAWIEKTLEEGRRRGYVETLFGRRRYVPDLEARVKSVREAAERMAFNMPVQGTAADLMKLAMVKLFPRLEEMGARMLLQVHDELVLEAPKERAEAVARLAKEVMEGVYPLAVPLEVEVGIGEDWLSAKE

Compound: Cc1cc2cn([C@H]3C[C@H](O)[C@@H](CO)O3)c(=O)nc2[nH]1 [Pyrrolo-dC, 6-Methyl-3-(β-D-2-deoxyribofuranosyl)pyrrolo[2,3-d]pyrimidin-2-one]
- how the residue is read under cycle sequencing conditions [1]: “read” as a dC; also recorded: read as a dC
- sequence of PCR product generated with the triphosphate [2]: specifically incorporated as a “dC” opposite a dG residue
- increase in fluorescence as the polymerase induces melting [3]: two-fold
- fluorescence when mismatched in an otherwise duplex hybrid [4]: higher than the single-stranded species
- E260 [5]: 4,000 LImol cm
- E345 [5]: 3,700 L/mol cm
- QY (quantum yield) ([5]; double-stranded): 0.02
- QY (quantum yield) ([5]; single-stranded): 0.07

Compound: SEQ ID NO.:9: T7 forward primer 5′-TAA TAX GAX TXA XTA TAG G-3′, X=pyrrolo-dC; four substitutions (TAATACGACTCACTATAGG; DNA, [pyrroloC] at 6, 9, 11, 13, backbone not given here)
- ability to be used by polymerases in PCR versus unsubstituted T7 primer [6]: equivalence
- primer amount at which product formation sharply decreases [7]: around 0.15 pmol

Compound: SEQ ID NO.: 1: 19mer oligonucleotide 5′-GCC TAA CTT CXG GAG ATG T-3′, where X is Pyrrolo-dC
- melting temperature Tm ([8]; dA opposite pyrrolo-dC): 55 °C
- melting temperature Tm ([8]; dC opposite pyrrolo-dC): 52 °C
- melting temperature Tm ([8]; dG opposite pyrrolo-dC): 65 °C
- melting temperature Tm ([8]; dT opposite pyrrolo-dC): 56 °C
